# Laboratory results from patent US6150355A, “Phenylpiperidine derivative” (Kyowa Hakko Kogyo Co., Ltd., priority 1995, dated 2000).
# How the values were obtained:
# male mice = assay: Evaluation Test of Analgesic Activity (acetic acid intraperitoneally, number of risings); assay type: in vivo; settings: Mus musculus, po, 10 mg/kg orally, after 1 hour 0.7% acetic acid i.p. 0.1 ml per 10 g, number of risings for 5 minutes, 10 minutes after, vs control, read-out: Inhibition Rate
# Protocol: Evaluation Test of Analgesic Activity
# Test compounds (10 mg/kg) were orally administered to groups of male mice, each group consisting of 4 to 12 mice, and after 1 hour, the mice were administered intraperitoneally with a 0.7% acetic acid aqueous solution in a dose of 0.1 ml per weight of 10 g. Then, the number of the risings manifested for 5 minutes 10 minutes after the administration was compared with a control group to calculate inhibition rate.
# ddy male mice = assay: Acute Toxicity Test (minimum lethal dose); assay type: in vivo; settings: intraperitoneal, ddy male mice 20±1 g, mortality seven days after administration
# Text: Test compounds were intraperitoneally administered to groups of ddy male mice weighing 20±1 g.
Structure (SMILES),inhibition in vivo at 10 mg/kg (male mice) [%],minimum lethal dose (MLD) (ddy male mice) [mg/kg]
"Cc1ccc2c(c1)C(N1CCC(O)(c3ccccc3)CC1)c1ccccc1CO2 (centres unmarked) [Compound 2, 11-(4-Hydroxy-4-phenylpiperidine-1-yl)-2-methyl-6,11-dihydrodibenzo[b,e] oxepine]",83,> 100
"Cc1cccc(C2(O)CCN(C3c4ccccc4COc4ccc(C)cc43)CC2)c1 (centres unmarked) [Compound 3, 11-[4-Hydroxy-4-(3-methylphenyl)piperidine-1-yl]-2-methyl-6,11-dihydrodibenzo[b,e] oxepine]",90,> 100
"Cc1ccc2c(c1)C(N1CCC(O)(c3cccc(C(F)(F)F)c3)CC1)c1ccccc1CO2 (centres unmarked) [Compound 4, 11-[4-Hydroxy-4-(3-trifluoromethylphenyl)piperidine-1-yl]-2-methyl-6,11-dihydrodibenzo[b,e] oxepine]",96,> 100
"Cc1ccc2c(c1)C(N1CCC(O)(c3ccc(Cl)cc3)CC1)c1ccccc1CO2 (centres unmarked) [Compound 5, 11-[4-(4-Chlorophenyl)-4-hydroxypiperidine-1-yl]-2-methyl-6,11-dihydrodibenzo[b,e] oxepine]",72,> 100
"CCc1ccc2c(c1)C(N1CCC(O)(c3ccccc3)CC1)c1ccccc1CO2 (centres unmarked) [Compound 8, 2-Ethyl-11-(4-hydroxy-4-phenylpiperidine-1-yl)-6,11-dihydrodibenzo[b,e] oxepine]",94,> 100
"OCc1ccc2c(c1)C(N1CCC(O)(c3ccccc3)CC1)c1ccccc1CO2 (centres unmarked) [Compound 19, 11-(4-Hydroxy-4-phenylpiperidine-1-yl)-2-hydroxymethyl-6,11-dihydrodibenzo[b,e] oxepine]",76,> 100
"CC(O)c1ccc2c(c1)C(N1CCC(O)(c3ccccc3)CC1)c1ccccc1CO2 (centres unmarked) [Compound 22, 11-(4-Hydroxy-40phenylpiperidine-1-yl)-2-(1-hydroxyethyl)-6,11-dihydrodibenzo[b,e] oxepine]",100,> 100
"OCc1ccc2c(c1)C(N1CCC(O)(c3cccc(C(F)(F)F)c3)CC1)c1ccccc1CO2 (centres unmarked) [Compound 24, 11-[4-Hydroxy-4-(3-trifluoromethylphenyl)piperidine-1-yl]-2-hydroxymethyl-6,11-dihydrodibenzo[b,e] oxepine]",100,> 100
"Cc1ccc2c(c1)C(N1CCC(O)(c3ccccc3)CC1)c1cccnc1CO2 (centres unmarked) [Compound 27, 5-(4-Hydroxy-4-phenylpiperidine-1-yl)-7-methyl-5,11-dihydrobenzo[3,4-b] oxepinopyridine]",100,–
